Data: patent publication US20070082942A1, “Prevention of hiv-1 infection by inhibition of rho-mediated reorganization and/or content alteration of cell membrane raft” (priority 2003, published 2007)

Experiments:
[1] = test system: replication-defective NL4-3 virus pseudotyped with HIV-1ADA envelope; format: cell-based; settings: for Entry of R5-pseudotyped virus: MT2-CCR5 cells treated with 10 μM compound, 48 h, FIG. 6A, 7B
[2] = test system: gp120 with the HIV-1 receptors CD4 and CXCR4; assay: gp120-induced patching; settings: for Restoration of patch size and gp120-CXCR4 co-localization in lovastatin-treated cells: addition to lovastatin-treated cells
[3] = test system: HIV-1 LTR-driven promoter; assay: LTR-driven gene expression; settings: for Reversal of lovastatin-induced increase in LTR-driven transcription: supplementation with lovastatin
Description: LTR-driven gene expression. Jurkat cells transfected with pLTR-luc (Schwartz, O. et al (1990) Gene 88:197-205), pcDNA-tat and the promoterless renilla luciferase plasmid were treated at 4 h post-transfection with inhibitors and metabolites at the indicated concentrations (see HIV-1. infections section). Relative luciferase units (RLU) were calculated as the ratio between firefly and renilla activity after 48 h.

HIV-1 = assay: Lovastatin treatment of HIV-1-infected patients; format: in vivo, human; settings: Table I
[4] = test system: VSV-G-pseudotyped virus produced by HEK 293T cells; format: cell-based, vesicular stomatitis virus
[5] = test system: X4-pseudotyped replication-defective HIV-1 NL4-3 variant; format: cell-based; settings: 10 μM lovastatin; not shown
[6] = test system: HIV-1-pseudotyped virus produced by HEK 293T cells; format: cell-based
grafted human PBMC = settings: mouse, in vivo
X4 (NL4-3) HIV-1 strain = assay: HIV-1 infection of PHA-activated human PBMC, p24 antigen, X4 strain; format: cell-based
Description: (§1) Treated PBMC were incubated with NL4-3 or BaL viral stocks (1 or 10 ng p24 antigen/10^6 cells; 3 h, 37° C.). Cell-free supernatants were collected daily from cultured cells (0.5×10^6/ml) and tested for p24 antigen (Coulter).

Rho = Rho activation assay; format: cell-based; settings: FIG. 8C
Description: Rho and Rac activation assay. […] At times indicated, cells were washed with ice-cold PBS and lysates prepared using Rho or Rac activation assay kits (Upstate Biotechnology). GTP-bound Rho was precipitated with RBD-agarose beads and GTP-Rac with PBD-agarose beads. Activated Rho or Rac were measured in pellets by Western blot with specific antibodies, using crude cell extracts for normalization. Densitometry was performed using NIH Image software.

HIV-1 NL4-3 = assay: Murine SCID-hu-PBMC model of HIV-1 infection; format: in vivo, CB.17 SCID/SCID mice
MT2-CCR5 cells = assay: Cell cholesterol mass determination; settings: lovastatin-treated MT2-CCR5 cells; FIG. 7C
R5 (BaL) HIV-1 strain = assay: HIV-1 infection of PHA-activated human PBMC, p24 antigen, R5 strain; format: cell-based
Description: as §1

[7] = test system: replication-defective NL4-3 virus pseudotyped with VSV envelope; format: cell-based, vesicular stomatitis virus
Luc-Ada viral particles = assay: Production of Luc-Ada viral particles in cells expressing raft-targeted protease peptide; settings: cells expressing the peptide; FIG. 8B as printed
Gag = settings: cells expressing the peptide
[8] = lovastatin-treated PBMC, FIG. 8A

CC(C)CCC[C@@H](C)[C@H]1CC[C@H]2[C@@H]3CC=C4C[C@@H](O)CC[C@]4(C)[C@H]3CC[C@]12C [cholesterol]
Reversal of lovastatin-induced inhibition of HIV-1 entry [1]: not | Restoration of patch size and gp120-CXCR4 co-localization in lovastatin-treated cells ([2]; FIG. 8A): not | Reversal of lovastatin-induced increase in LTR-driven transcription ([3]; MT2-CCR5 cells, FIG. 7D): not

CC[C@H](C)C(=O)O[C@H]1C[C@@H](C)C=C2C=C[C@H](C)[C@H](CC[C@@H]3C[C@@H](O)CC(=O)O3)[C@H]21 [lovastatin]
Serum viral RNA loads (HIV-1; six A1 stage non-HAART patients, 40 mg/day oral, one month, sole therapy): clear reduction | Viral load after discontinuation of treatment (HIV-1; three months after termination of treatment): rebound | VSV-G-pseudotyped viral production [4]: not that of VSV-G-pseudotyped viruses | Entry of X4-pseudotyped virus [5]: inhibited entry | HIV-1-pseudotyped viral production [6]: reduced | Number of labeled cells or labeling intensity (grafted human PBMC): No difference | HIV-1 replication (p24 antigen production) (X4 (NL4-3) HIV-1 strain; PBMC pretreated 48 h with 10 μM lovastatin, X4 (NL4-3)-infected cultures, FIG. 5A): reduced p24 antigen production | HIV-1-induced Rho activation (Rho; MT2-CCR5 cells incubated with lovastatin prior to virus exposure): inhibited | Virus rescue by co-culture of peritoneal cells with PHA-activated human PBMC (HIV-1 NL4-3; cells from two mice with undetectable viral RNA): did not rescue virus | Mice with undetectable viral RNA in plasma (HIV-1 NL4-3; lovastatin i.p. 5 mg/kg every three days): 4 of 10 | Mean viral load (plasma HIV-1 RNA) (HIV-1 NL4-3; lovastatin i.p. 5 mg/kg every three days, one week post-infection, vs vehicle, FIG. 5C): significantly reduced | CD4+ T cell counts vs controls (HIV-1 NL4-3; one week post-infection): higher | Entry of R5-pseudotyped virus [1]: inhibited entry | Cholesteryl ester mass (MT2-CCR5 cells): drastically reduced | Free cholesterol levels vs untreated cells (MT2-CCR5 cells): comparable | gp120 binding to CD4 ([2]; lovastatin-treated PBMC): did not affect | Co-localization between gp120 and CXCR4 [2, 8]: drastically reduced | gp120 patch size vs untreated cells [2, 8]: smaller gp120 patches | HIV-1 replication (p24 antigen production) (R5 (BaL) HIV-1 strain; PBMC pretreated 48 h with 10 μM lovastatin, R5 (BaL)-infected cultures, FIG. 5A): reduced p24 antigen production | HIV-1 LTR-driven promoter activity ([3]; Jurkat cells, FIG. 6C): increased

CC(C)=CCC/C(C)=C/CC/C(C)=C/COP(=O)(O)OP(=O)(O)O [FPP, famesylpyrophosphate]
Reversal of lovastatin-induced inhibition of HIV-1 entry [1]: not | Reversal of lovastatin-induced increase in LTR-driven transcription ([3]; MT2-CCR5 cells, FIG. 7D): not

CC(C)=CCC/C(C)=C/CC/C(C)=C/CC/C(C)=C/COP(=O)(O)OP(=O)(O)O [GGPP, geranylgeranylpyrophosphate]
Reversal of lovastatin inhibition of HIV-1-induced Rho activation (Rho; co-incubation with lovastatin): reversed | Reversal of lovastatin-induced inhibition of HIV-1 entry [1]: reversed | Reversal of lovastatin-induced increase in LTR-driven transcription ([3]; MT2-CCR5 cells, FIG. 7D): reversed

COC(=O)[C@H](CC(C)C)NC(=O)c1ccc(NC[C@@H](N)CS)cc1-c1ccccc1 [geranylgeranyl transferase inhibitor]
Entry of VSV-pseudotyped virus [7]: did not affect | Entry of R5-pseudotyped virus [1]: inhibited | HIV transcription (LTR-driven) ([3]; MT2-CCR5 cells, FIG. 7D): increased

L-mevalonate
Reversal of lovastatin-induced reduction of viral production ([6]; co-incubation with lovastatin, FIG. 6B): reversed | Reversal of lovastatin effect on p24 production (X4 (NL4-3) HIV-1 strain; co-incubation with lovastatin, X4-infected cultures): reversed | Reversal of lovastatin-induced inhibition of HIV-1 entry [1]: reversed | Restoration of patch size and gp120-CXCR4 co-localization in lovastatin-treated cells ([2]; FIG. 8A): restored | Reversal of lovastatin effect on p24 production (R5 (BaL) HIV-1 strain; co-incubation with lovastatin, R5-infected cultures): reversed | Reversal of lovastatin-induced increase in LTR-driven promoter activity ([3]; Jurkat cells, co-incubation with lovastatin, FIG. 6C): reversed

MGCGCSSHPEDDISYEL [SEQ. ID. NO: 21]
Production of Luc-Ada viral particles (Luc-Ada viral particles): severely diminished | Gag processing (Gag): severely attenuated

COC(=O)[C@H](CCSC)NC(=O)c1ccc(NC[C@@H](N)CS)cc1-c1ccccc1 [farnesyl transferase inhibitor]
Entry of VSV-pseudotyped virus [7]: did not affect | Entry of R5-pseudotyped virus [1]: not
